Test results taken from US11369588B2, “NADPH production by the 10-formyl-THF pathway, and its use in the diagnosis and treatment of disease” (The Trustees of Princeton University, priority 2014, dated 2022).
Values joined by “and” are separate entries in the source; they are usually repeats but may differ in a detail not shown here. Equal values may be shown once.

What was measured:
[1] = system: oxPPP; experiment: oxPPP tracing: NADPH labeling from 1-2H-glucose in 3T3-L1 cells; type: cell-based; conditions: proliferating 3T3-L1 cells, tracer fed 2 h
Experimental: In one embodiment, PPP activity is measured by incubating cultured adipocytes (e.g., 3T3-L1 adipocytes) in the presence of 1-^14C-glucose versus 6-^14C-glucose and detecting the released ^14CO2. The oxPPP releases C1 of glucose as CO2. The 6-^14C-glucose corrects for release of C1 by other pathways, because C1 and C6 are rendered identical by the triose phosphate isomerase step in glycolysis. After determining the oxPPP flux, the cells are provided with 1-^2H-glucose, which selectively labels NADPH in the first step (G6PDH) of the PPP.
Two complimentary methods were used to measure oxPPP activity in the proliferating and differentiating 3T3-L1 cells. First, cells were cultured in the presence of 1-^14C-Glucose versus 6-^14C-Glucose and the release of ^14CO2 was detected. The oxPPP releases C1 of glucose as CO2. The 6-^14C-Glucose corrects for release of C1 by other pathways, because C1 and C6 are rendered identical by the triose phosphate isomerase step in glycolysis. […] Next, cells were fed 1-^2H-Glucose, which selectively labels NADPH in the first step (G6PDH) of the oxPPP, and can therefore be used to determine the fraction of NADPH made by the oxPPP. In the proliferating cells, M+1 NADPH exceeded M+1 NADP+ by ˜16% (FIG. 18). […] In contrast, in the differentiating adipocytes, there was much less NADPH labeling from 1-^2H-Glucose. […]

[2] = system: HEK293T cells; conditions: non-growing HEK293T cells, 150 μM H2O2, 5 h
Experimental: Total cytosolic NADPH turnover was measured based on the absolute oxPPP flux divided by the fractional contribution of the oxPPP to total NADPH as measured using NADP2H formation from 1-^2H-glucose. Mean±SD, N=3.

[3] = system: malic enzyme; experiment: Tracing hydride flux through malic enzyme with 2H tracers in 3T3-L1 cells (LC-MS labeling of malate, aspartate, NADPH, fatty acids); type: cell-based; conditions: for fraction of M+1 aspartate / fraction of M+1 malate / fraction of M+2 malate: differentiating 3T3-L1 adipocytes day 5; for fatty acid 2H-labeling, M+0 fraction / fatty acid 2H-labeling, M+1 fraction / fatty acid 2H-labeling, M+2 fraction: tracer 5 days
From the text: To more directly establish the contribution of malic enzyme to NADPH production, cells are provided with the ^2H-labeled succinate analogue, 2,2,3,3-^2H-dimethyl-succinate, and deuterium labeling is followed through the C2 hydride of malate to NADPH and finally to newly synthesized fatty acid molecules (FIGS. 15A-15F). Although any suitable labeled molecule may be used to trace hydride flux from malate to NADPH and subsequently into fat, it is preferred to use 2,2,3,3-^2H-dimethyl-succinate for the above purpose.
NADPH labeling at its redox active hydride was analyzed by comparing the M+1 fraction of NADPH to NADP+.
Converting the NADPH labeling fraction from 2,2,3,3-^2H-dimethyl-succinate into the fractional NADPH contribution of malic enzyme requires two important corrections: (i) fractional ^2H-labeling of malate's C2 hydride and (ii) the malic enzyme deuterium kinetic isotope effect (approximately 1.5).
2,2,3,3-^2H-dimethyl succinate was used to track hydride transfer mediated by malic enzyme. Tracer addition increased the cellular concentration of succinate without markedly perturbing other metabolite concentrations or fluxes. Labeling from 2,2,3,3-^2H-dimethyl succinate was followed through the C2 hydride of malate to NADPH and finally to newly synthesized fatty acids. NADPH labeling at its redox active hydride was analyzed by comparing the M+1 fraction of NADPH to NADP^+. […] Adjustment for the kinetic isotope effect in hydride transfer from NADPH to fat (˜1.1) (Yuan, Z. et al. (1984) “Elementary Steps in the Reaction Mechanism of Chicken Liver Fatty Acid Synthase,” 259:6748-6751) yields an associated cytosolic NADPH labeling fraction of 3.2%±0.5%, in excellent agreement with the directly measured whole cell NADPH labeling.
The NADPH labeling fraction from [2,2,3,3-^2H] dimethyl succinate was converted into the fractional NADPH contribution of malic enzyme is accordance with Equation 15. Forward flux from 2,2,3,3-^2H-succinate results in 2,3-^2H-malate, i.e., M+2 malate. The observed fraction of M+2 malate was, however, only 1.5%. The larger peak was M+1 malate (10.9%). Reverse flux through malate dehydrogenase can produce M+1 malate labeled at the C3 hydride (3-^2H-malate). As fumarate is symmetric, fumarase will interconvert 3-^2H-malate and 2-^2H-malate. Because malic enzyme will produce NADPH selectively from malate labeled at the C2 hydride, the relative abundance of 2-^2H-malate versus 3-^2H-malate was determined. 3-^2H-malate (and also 2,3-^2H-malate) yields M+1 oxaloacetate and aspartate, whereas 2-^2H-malate yields unlabeled oxaloacetate and aspartate. […] Summing 2-^2H-malate and 2,3-^2H-malate, the fraction of malate that is capable of making NADPH was 7.9%. Thus, while 2,2,3,3-^2H-dimethyl succinate labeled only approximately 3.2% of NADPH, after adjusting for the extent of malate labeling and the malic enzyme kinetic isotope effect, the fraction of NADPH generated via malic enzyme was calculated to be is approximately 60%.
4-^2H-glucose was therefore employed as a metabolic tracer. Cells were grown in 6 cm tissue culture dishes, and the labeled medium was replaced every day, and additionally 2 hours before extracting metabolites. Because labeling of glycolytic and oxPPP intermediates and the redox active hydride of NADPH reaches steady state over approximately 5 min, where for TCA intermediates this can take several hours, to ensure steady-state labeling, oxPPP tracing with 1-^2H-glucose and 1,2-^13C-glucose is performed for a minimum of 30 min and other labeling experiments for a minimum of 12 h. Metabolism is then quenched and metabolites extracted by aspirating media and immediately adding 2 mL −80° C. 80:20 methanol:water. After 20 min. of incubation on dry ice, the resulting mixture was scraped, collected into a centrifuge tube, and centrifuged at 10000 g for 5 min. Insoluble pellets were re-extracted with 1 mL −80° C. 80:20 methanol: water on dry ice. […]

[4] = system: HEK293T cells; conditions: 3 days, DMEM no serine, 5 mM glycine instead of 0.4 mM
[5] = system: methylene-THF oxidation pathway; experiment: Folate pathway tracing: NADPH labeling from 2,3,3-2H-serine in 3T3-L1 cells; type: cell-based

Row | Structure (SMILES) | fraction of M+1 aspartate [3] | fraction of M+1 malate [3] | fraction of M+2 malate [3] | fatty acid 2H-labeling, M+0 fraction ([3]; differentiating 3T3-L1 cells) | fatty acid 2H-labeling, M+1 fraction ([3]; differentiating 3T3-L1 cells) [%] | fatty acid 2H-labeling, M+2 fraction ([3]; differentiating 3T3-L1 cells) [%] | fatty acid 2H-labeling, M+0 fraction ([3]; proliferating 3T3-L1 cells) [%] | other results
1 | [2H]C1(O)OC(CO)C(O)C(O)C1O (stereo not drawn) [1-^2H-Glucose] | – | – | – | – | – | – | – | excess of M+1 NADPH over M+1 NADP+ [1]: ~16%
2 | OO [hydrogen peroxide] | – | – | – | – | – | – | – | total cytosolic NADPH production rate [2]: 5.5 nmol/µL/h
3 | [2H][C@@]1(O)[C@@H](CO)OC(O)[C@H](O)[C@@H]1O (stereo partly drawn) [4-^2H-glucose] | 4.3% and 4.3 ± 0.1% | 12.3% and 12.3 ± 0.1% | 0.3% and 0.3 ± 0.0% | approximately 60% | ~35 | ~5 | 100 | –
4 | [2H]C([2H])(C(=O)OC)C([2H])([2H])C(=O)OC [2,2,3,3-^2H-dimethyl succinate] | 6.0% | 10.9% | 1.5% | approximately 60% | ~30 | ~10 | 100 | fraction of 2-2H-malate ([3]; M+1 plus M+2 malate minus M+1 aspartate, differentiating 3T3-L1 adipocytes): approximately 6.4%; fraction of NADPH generated via malic enzyme ([3]; after adjusting for malate labeling and malic enzyme kinetic isotope effect, normoxic differentiating 3T3-L1 adipocytes): approximately 60%; fraction of malate capable of making NADP2H (2-2H-malate plus 2,3-2H-malate) ([3]; differentiating 3T3-L1 adipocytes): 7.9%; average hydride 2H-labeling fraction of a set of abundant fatty acids ([3]; differentiating 3T3-L1 adipocytes, newly synthesized fatty acids only): 2.87%±0.31%; total adipocyte (whole cell) NADPH labeled at redox active hydride ([3]; differentiating (day 5) 3T3-L1 adipocytes, tracer fed 24 h): 3.4%±0.3%
5 | NCC(=O)O [glycine] | – | – | – | – | – | – | – | cell growth (relative cell number) [4]: inhibit cell growth; relative NADPH/NADP+ ratio [4]: decrease the NADPH/NADP+ ratio
6 | [2H]C([2H])(O)[C@]([2H])(N)C(=O)O [2,3,3-^2H-serine] | – | – | – | – | – | – | – | labeling of NADPH at its redox active hydride [5]: approximately 3%
